Assay type in all cases: cell-based
In assay [1] the test system is TNFα-FL/Gaussia Luciferase. Description: Dox Induced TNFα-FL-Gluc Assay. The conditions noted are these: 293FRT/TO cells, read-out: 24 hr Dox Inducible TNFaFLGluc 293FRT/TO: Mean IC50. On the procedure: (§1) Transfected cells were selected for resistance to the selectable markers Hygromycin and Blasticidin to create a stable cell line that contained the TNFα-FL/Gaussia Luciferase cDNA insert whose expression was regulated under the T-RExTM system. The day before assay, cells were trypsinized and plated in 384-well tissue culture plates. The next day, compound dilutions in DMSO/media containing doxycycline were added to the wells and incubated at 37° C., 5% CO2. […] For chemical structures that include one or more stereoisomers, but are illustrated without indicating stereochemistry, the assay data refers to a mixture of stereoisomers.

The subject of assay [2] is human multiple myeloma cell line NCI-H929. Description: H929 Cell Viability Assay. The conditions noted are these: read-out: 48 hr H929 Viability Celltiter-Glo: Mean EC50. On the procedure:
Plates were incubated at 37° C., 5% CO2 for 48 hours. After 48 hours, Celltiter-Glo® (Promega) was added to each well and luciferase signal was quantified using Tecan Infinite M1000 Pro for cell viability determination.
(§2) For chemical structures that include one or more stereoisomers, but are illustrated without indicating stereochemistry, the assay data refers to a mixture of stereoisomers.

Assay [3] relates to IL-2-FL/Gaussia Luciferase. The assay is described as follows: Dox Induced IL2-FL-Gluc Assay. The conditions noted are these: 293FRT/TO cells, read-out: 24 hr Dox Inducible IL2FLGIuc 293FRT/TO: Mean IC50. The protocol: as §1, with “IL-2-FL/Gaussia” for “TNFα-FL/Gaussia”
Assay [4] concerns PD1-ss+10aa/Gaussia Luciferase. The assay is described as follows: Dox-Induced PD1-ss-Gluc Assay. The conditions noted are these: 293FRT/TO cells, read-out: 24 hr Dox Inducible PD1ssGluc 293FRT/TO: Mean IC50. On the procedure: Transfected cells were selected for resistance to the selectable markers Hygromycin and Blasticidin to create a stable cell line that contained the PD1-ss+10aa/Gaussia Luciferase cDNA insert whose expression was regulated under the T-REx™ system. The day before assay, cells were trypsinized and plated in 384-well tissue culture plates. The next day, compound dilutions in DMSO/media containing doxycycline were added to the wells and incubated at 37° C., 5% CO2.
as §2

Assay [5] relates to HER3-ss+4aa/Gaussia Luciferase. Description: Dox-Induced Her3-ss-Gluc Assay. The conditions noted are these: 293FRT/TO cells, read-out: 24 hr Dox Inducible Her3(ss + 4)Gluc 293FRT/TO: Mean IC50. On the procedure: Transfected cells were selected for resistance to the selectable markers Hygromycin and Blasticidin to create a stable cell line that contained the HER3-ss+4aa/Gaussia Luciferase cDNA insert whose expression was regulated under the T-REx™ system. The day before assay, cells were trypsinized and plated in 384-well tissue culture plates. The next day, compound dilutions in DMSO/media containing doxycycline were added to the wells and incubated at 37° C., 5% CO2.
as §2

Assay [6] deals with human multiple myeloma cell line U266B1. Description: U266 Cell Viability Assay. The conditions noted are these: read-out: 48 hr U266 Viability Celltiter-Glo: Mean EC50. On the procedure: Cells were plated in 384-well tissue culture plates and treated with compound dilutions in DMSO/media. Plates were incubated at 37° C., 5% CO2 for 48 hours. After 48 hours, Celltiter-Glo® (Promega) was added to each well and luciferase signal was quantified using Tecan Infinite M1000 Pro for cell viability determination.
as §2
On the technique in general: Cellular ATP, detected with luciferase, serves as a proxy for viable cell number.

Setting [7] is: 24 hr doxycycline induction, Gaussia luciferase signal.
The mark [8] stands for this setting: 48 hr, NCI-H929 cells, Celltiter-Glo.
[9] abbreviates: U-266, 48 hr, U266B1 cells, Celltiter-Glo.

Molecules are shown by their SMILES. Where two headings read alike, the source gives them in different places. Where only a bound is given, the exact number is not on record here.

A word on the EC50: it is the midpoint of the concentration-response curve.

For the compound `CCOC(C)(C)c1csc(NC(=O)c2cccn2Cc2ccncc2)n1` [Compound A27, N-(4-(2-ethoxypropan-2-yl)thiazol-2-yl)-1-(pyridin-4-ylmethyl)-1H-pyrrole-2-carboxamide], the IC50 in assay [1] (setting [7]) is 9.53 µM; in assay [3] (setting [7]) it was 0.32 µM; in assay [4] (setting [7]), 0.445 µM; in assay [5] (setting [7]) it was 0.822 µM. For the same compound, the EC50 in assay [2] (setting [8]) and in assay [6] (setting [9]) was > 25 µM in each case.

With `C=Cc1csc(NC(=O)c2cccn2Cc2ccncc2)n1` [Compound B2], the IC50 in assay [1] (24 hr, doxycycline-induced) was > 25 µM; in assay [3] (24 hr, doxycycline-induced), 8.42 µM; in assay [4] (24 hr, doxycycline-induced) it was 1.97 µM; in assay [5] (24 hr, doxycycline-induced), 12.1 µM. Moreover, the half-maximal effective concentration (EC50) in assay [2] (setting [8]) and in assay [6] (setting [9]) was > 25 µM each time.

For `O=C(Nc1nc(N2CCN(c3ccccc3)CC2)cs1)c1cccn1Cc1ccncc1` [Compound A266], the IC50 is > 25 µM in assay [1] (setting [7]), > 25 µM in assay [3] (setting [7]), 6.25 µM in assay [4] (setting [7]) and 9 µM in assay [5] (setting [7]). Also, the EC50 in assay [2] (setting [8]) and in assay [6] (setting [9]) was > 25 µM each time.

Take `O=C(Nc1nc(C2CCN(Cc3ccccc3)CC2)cs1)c1cccn1Cc1ccncc1` [Compound A302]: the IC50 was > 25 µM in assay [1] (24 hr, doxycycline-induced); 10.6 µM in assay [3] (24 hr, doxycycline-induced); 1.98 µM in assay [4] (24 hr, doxycycline-induced); 6.17 µM in assay [5] (24 hr, doxycycline-induced). Besides, the EC50 in assay [2] (setting [8]) and in assay [6] (setting [9]) was > 25 µM throughout.

For the compound `Cc1cccc(/C=C\c2csc(NC(=O)c3cccn3Cc3ccncc3)n2)n1` [Compound A355], the IC50 amounted to 9.74 µM in assay [1] (24 hr, doxycycline-induced); 11.3 µM in assay [3] (24 hr, doxycycline-induced); 0.524 µM in assay [4] (24 hr, doxycycline-induced); 3.81 µM in assay [5] (24 hr, doxycycline-induced). The results for the 50% effective concentration (EC50) in assay [2] (setting [8]) and in assay [6] (setting [9]) were 22.3 µM and 17.2 µM, respectively.

Regarding `O=C(Nc1nc(C2CCC(c3ccccc3)CC2)cs1)c1cccn1Cc1ccncc1` (stereo not drawn) [Compound A255], the IC50 in assay [1] (setting [7]) came to 1.33 µM; in assay [3] (setting [7]) it was 0.477 µM; in assay [4] (setting [7]) it was 0.102 µM; in assay [5] (setting [7]), 0.25 µM. The results for the EC50 in assay [2] (setting [8]) and in assay [6] (setting [9]) were 7.21 µM and 18.1 µM, respectively.

On to `CC(C)(C)c1cnc(NC(=O)c2cccn2Cc2ccncc2)s1` [Compound A54], for which the IC50 is > 25 µM in assay [1] (setting [7]), 4.45 µM in assay [3] (setting [7]), 1.38 µM in assay [4] (setting [7]) and 4.05 µM in assay [5] (setting [7]). For the same compound, the half-maximal effective concentration (EC50) in assay [2] (setting [8]) and in assay [6] (setting [9]) was > 25 µM throughout.

In the case of `O=C(Nc1nc(/C=C/C2CCCOC2)cs1)c1cccn1Cc1ccncc1` (stereo not drawn) [Compound A154, 1-(pyridin-4-ylmethyl)-N-(4-(2-(tetrahydro-2H-pyran-3-yl)vinyl)thiazol-2-yl)-1H-pyrrole-2-carboxamide], the IC50 stood at 11.5 µM in assay [1] (setting [7]), 5.42 µM in assay [3] (setting [7]), 0.694 µM in assay [4] (setting [7]) and 2.6 µM in assay [5] (setting [7]). Besides, the EC50 in assay [2] (setting [8]) and in assay [6] (setting [9]) was > 25 µM throughout.

Take `CC(C)OC(C)(C)c1csc(NC(=O)[C@@H]2CCCN2Cc2ccncc2)n1` [Compound A130, (S)-N-(4-(2-isopropoxypropan-2-yl)thiazol-2-yl)-1-(pyridin-4-ylmethyl)pyrrolidine-2-carboxamide]: the IC50 in assay [1] (setting [7]), in assay [3] (setting [7]), in assay [4] (setting [7]) and in assay [5] (setting [7]) was > 25 µM in each case. Further, in assay [2] (setting [8]), the EC50 was > 25 µM.

For the compound `CC(C)(C)c1csc(NC(=O)c2cc3cc(Cl)ccc3n2Cc2ccncc2)n1` [Compound B28, N-(4-(tert-butyl)thiazol-2-yl)-5-chloro-1-(pyridin-4-ylmethyl)-1H-indole-2-carboxamide], the IC50 in assay [1] (24 hr, doxycycline-induced) was > 25 µM; in assay [3] (24 hr, doxycycline-induced) it was > 25 µM; in assay [4] (24 hr, doxycycline-induced), > 25 µM. The EC50 was 23.4 µM in assay [2] (NCI-H929, 48 h) and > 25 µM in assay [6] (U-266, 48 h).

Regarding `CCc1nc(NC(=O)c2cc3cc(Cl)ccc3n2Cc2ccncc2)sc1C` [Compound B29, 5-chloro-N-(4-ethyl-5-methylthiazol-2-yl)-1-(pyridin-4-ylmethyl)-1H-indole-2-carboxamide], the IC50 in assay [1] (24 hr, doxycycline-induced) was > 25 µM; in assay [3] (24 hr, doxycycline-induced) it was > 25 µM; in assay [4] (24 hr, doxycycline-induced), > 25 µM. Besides, the EC50 is > 25 µM in assay [2] (NCI-H929, 48 h) and > 25 µM in assay [6] (U-266, 48 h).

The values above are taken from US20220153732A1, “PROTEIN SECRETION INHIBITORS” (KEZAR LIFE SCIENCES, priority 2019, published 2022).
